According to patent publication US20260327191A1, “GSK3a INHIBITORS AND METHODS OF USE THEREOF” (Blueprint Medicines Corporation, priority 2023, published 2026):
Where a name gives a salt, the structure may show the parent alone. Read-outs that look alike come from different tables or passages of the source.

Legend:
[1] = target: T1, GSK3A (Homo sapiens, UniProt P49840); test: NanoBRET cellular target engagement assay, Nanoluc-GSK3A in HEK293 cells; format: cell-based; conditions: NanoBRET GSK3α IC50, HEK293 cells, tracer K-8, 2 hours, 37° C
T1 construct: expressed in transfected cells

[2] = target: T2, GSK3B (Homo sapiens, UniProt P49841); test: NanoBRET cellular target engagement assay, Nanoluc-GSK3B in HEK293 cells; format: cell-based; set-up: expressed in transfected cells; conditions: NanoBRET GSK3β IC50, HEK293 cells, tracer K-8, 2 hours, 37° C
[3] = target: T2, GSK3B; test: In vitro enzymatic activity assay, GSK3β; format: biochemical; set-up: Full length human GSK3α or GSK3B expressed as N-terminal GST fusion proteins; GST (N); purchased Carna Biosciences (Japan); host or cells: baculovirus host; conditions: 1.0 mM ATP, 1.0 μM peptide substrate, 120 min, 25° C
[4] = target: T3, human GSK3α (Homo sapiens, UniProt P49840); test: In vitro enzymatic activity assay, GSK3α; format: biochemical; conditions: 1.0 mM ATP, 1.0 μM peptide substrate, 120 min, 25° C
T3 construct: Full length human GSK3α or GSK3B expressed as N-terminal GST fusion proteins; GST (N); purchased Carna Biosciences (Japan); host or cells: baculovirus host
T3 sequence (P49840 whole entry, the tested form may be a part): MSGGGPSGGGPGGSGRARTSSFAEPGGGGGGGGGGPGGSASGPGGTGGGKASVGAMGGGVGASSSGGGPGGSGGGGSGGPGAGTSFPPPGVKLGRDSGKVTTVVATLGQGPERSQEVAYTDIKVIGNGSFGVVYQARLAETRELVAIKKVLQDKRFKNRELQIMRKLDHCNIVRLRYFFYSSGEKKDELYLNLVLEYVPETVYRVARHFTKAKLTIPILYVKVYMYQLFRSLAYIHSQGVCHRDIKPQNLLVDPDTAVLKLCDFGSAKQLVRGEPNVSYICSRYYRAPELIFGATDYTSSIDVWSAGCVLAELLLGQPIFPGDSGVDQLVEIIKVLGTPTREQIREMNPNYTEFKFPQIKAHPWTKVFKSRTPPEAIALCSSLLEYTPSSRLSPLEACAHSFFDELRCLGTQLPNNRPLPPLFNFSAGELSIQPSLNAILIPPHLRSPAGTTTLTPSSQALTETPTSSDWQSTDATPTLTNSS

T2 sequence (P49841 whole entry, the tested form may be a part): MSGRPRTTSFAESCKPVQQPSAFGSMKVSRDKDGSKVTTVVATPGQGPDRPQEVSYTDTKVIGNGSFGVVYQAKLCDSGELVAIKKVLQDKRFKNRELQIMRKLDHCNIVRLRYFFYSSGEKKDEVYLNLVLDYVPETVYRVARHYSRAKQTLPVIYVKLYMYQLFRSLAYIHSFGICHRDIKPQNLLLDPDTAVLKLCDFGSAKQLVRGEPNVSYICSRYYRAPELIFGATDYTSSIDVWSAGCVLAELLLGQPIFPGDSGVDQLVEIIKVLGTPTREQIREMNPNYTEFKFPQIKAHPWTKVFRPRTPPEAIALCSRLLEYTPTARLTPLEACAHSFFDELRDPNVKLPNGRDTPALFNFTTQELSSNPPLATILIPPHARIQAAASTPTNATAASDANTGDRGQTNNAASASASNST
T1 sequence (P49840 whole entry): as the sequence (P49840 whole entry, the tested form may be a part) above

| Structure (SMILES) | IC50 [1] | IC50 [2] | IC50 ([3]; read-out: Enzyme GSK3β (IC50)) | IC50 ([4]; read-out: Enzyme GSK3α (IC50)) | IC50 ([3]; Enzyme GSK3β (IC50)) | IC50 ([4]; Enzyme GSK3α (IC50)) |
| --- | --- | --- | --- | --- | --- | --- |
| Cc1cc(F)cc(C)c1-n1cnc(N)c(C(=O)Nc2cncc([C@H]3CCCCN3)c2)c1=O [Example 161, (R)-4-amino-1-(4-fluoro-2,6-dimethylphenyl)-6-oxo-N-(5-(piperidin-2-yl)pyridin-3-yl)-1,6-dihydropyrimidine-5-carboxamide trifluoroacetate] | 3 nM | 287 nM | 379 nM | 7.2 nM | – | – |
| Cc1cc(C(F)(F)F)cc(C)c1-n1cnc(N)c(C(=O)Nc2cncc([C@H]3CCCCN3)c2)c1=S [Example 162, (R)-4-amino-1-(2,6-dimethyl-4-(trifluoromethyl)phenyl)-N-(5-(piperidin-2-yl)pyridin-3-yl)-6-thioxo-1,6-dihydropyrimidine-5-carboxamide trifluoroacetate] | 5.4 nM | 301 nM | 218 nM | 5.6 nM | – | – |
| COCc1cc(C)c(-n2cnc(N)c(C(=O)Nc3cncc([C@H]4CCCCN4)c3)c2=S)c(C)c1 [Example 163, (R)-4-amino-1-(4-(methoxymethyl)-2,6-dimethylphenyl)-N-(5-(piperidin-2-yl)pyridin-3-yl)-6-thioxo-1,6-dihydropyrimidine-5-carboxamide trifluoroacetate] | 2.8 nM | 205 nM | 250 nM | 5.6 nM | – | – |
| CNCCc1c(NC(=O)c2c(N)ncn(-c3c(C)cccc3Cl)c2=O)cccc1OC [Example 164, 4-amino-1-((S)-2-chloro-6-methylphenyl)-N-(3-methoxy-2-(2-(methylamino)ethyl)phenyl)-6-oxo-1,6-dihydropyrimidine-5-carboxamide] | 9.7 nM | 1170 nM | 1850 nM | 29.4 nM | – | – |
| CCOc1cc(Cl)c(-n2cnc(N)c(C(=O)Nc3cncc(CNCCS(C)(=O)=O)c3)c2=O)c(Cl)c1 [Example 165, 4-amino-1-(2,6-dichloro-4-ethoxyphenyl)-N-(5-(((2-(methylsulfonyl)ethyl)amino)methyl)pyridin-3-yl)-6-oxo-1,6-dihydropyrimidine-5-carboxamide] | 9.3 nM | 1120 nM | 434 nM | 10.8 nM | – | – |
| NCc1cccc(NC(=O)c2c(N)ncn(-c3c(Cl)cccc3Cl)c2=O)c1OC(F)F [Example 170, 4-amino-N-(3-(aminomethyl)-2-(difluoromethoxy)phenyl)-1-(2,6-dichlorophenyl)-6-oxo-1,6-dihydropyrimidine-5-carboxamide trifluoroacetate] | 16.4 nM | 526 nM | 520 nM | 21.8 nM | – | – |
| CCC[C@@H](N)c1cncc(NC(=O)c2c(N)ncn(-c3c(C)cc(COC)cc3C)c2=O)c1 [Example 176, (R)-4-amino-N-(5-(1-aminobutyl)pyridin-3-yl)-1-(4-(methoxymethyl)-2,6-dimethylphenyl)-6-oxo-1,6-dihydropyrimidine-5-carboxamide] | 2.6 nM | 190 nM | 272 nM | 5.1 nM | – | – |
| COc1cc(Cl)c(-n2cnc(N)c(C(=O)Nc3cncc(C4(N)CC4)c3)c2=O)c(Cl)c1 [Example 181, 4-amino-N-(5-(1-aminocyclopropyl)pyridin-3-yl)-1-(2,6-dichloro-4-methoxyphenyl)-6-oxo-1,6-dihydropyrimidine-5-carboxamide] | 7 nM | 491 nM | 536 nM | 7.9 nM | – | – |
| COc1cc(Cl)c(-n2cnc(N)c(C(=O)Nc3cncc(C4(N)CCOCC4)c3)c2=O)c(Cl)c1 [Example 182, 4-amino-N-(5-(4-aminotetrahydro-2H-pyran-4-yl)pyridin-3-yl)-1-(2,6-dichloro-4-methoxyphenyl)-6-oxo-1,6-dihydropyrimidine-5-carboxamide] | 8.2 nM | 643 nM | 915 nM | 17.4 nM | – | – |
| CCOc1cc(Cl)c(-n2cnc(N)c(C(=O)Nc3cncc(C4(N)CCC4)c3)c2=O)c(Cl)c1 [Example 183, 4-amino-N-(5-(1-aminocyclobutyl)pyridin-3-yl)-1-(2,6-dichloro-4-ethoxyphenyl)-6-oxo-1,6-dihydropyrimidine-5-carboxamide] | 5 nM | 300 nM | 576 nM | 7.9 nM | – | – |
| Cc1cc(C(C)(F)F)cc(C)c1-n1cnc(N)c(C(=O)Nc2cncc([C@H]3CCCCN3)c2)c1=O [Example 186, (R)-4-amino-1-(4-(1,1-difluoroethyl)-2,6-dimethylphenyl)-6-oxo-N-(5-(piperidin-2-yl)pyridin-3-yl)-1,6-dihydropyrimidine-5-carboxamide] | 2.1 nM | 152 nM | 169 nM | 4.4 nM | – | – |
| Nc1ncn(-c2c(Cl)cc(OC(F)F)cc2Cl)c(=O)c1C(=O)Nc1cccc([C@@H]2CCCN2)c1 [Example 193, (S)-4-amino-1-(2,6-dichloro-4-(difluoromethoxy)phenyl)-6-oxo-N-(3-(pyrrolidin-2-yl)phenyl)-1,6-dihydropyrimidine-5-carboxamide] | 6.8 nM | 487 nM | 481 nM | 9.2 nM | – | – |
| COC(=O)c1cc(Cl)c(-n2cnc(N)c(C(=O)Nc3cncc([C@@H]4CCCCN4)c3)c2=O)c(Cl)c1 [Example 196, methyl(S)-4-(4-amino-6-oxo-5-((5-(piperidin-2-yl)pyridin-3-yl)carbamoyl)pyrimidin-1 (6H)-yl)-3,5-dichlorobenzoate] | 4.2 nM | 242 nM | 400 nM | 6.6 nM | – | – |
| CCNCc1cncc(NC(=O)c2c(N)ncn(-c3c(Cl)cc(C(=O)OC)cc3Cl)c2=O)c1 [Example 198, methyl 4-(4-amino-5-((5-((ethylamino)methyl)pyridin-3-yl)carbamoyl)-6-oxopyrimidin-1 (6H)-yl)-3,5-dichlorobenzoate] | 3.7 nM | 209 nM | 332 nM | 5.6 nM | – | – |
| CCNCc1cncc(NC(=O)c2c(N)ncn(-c3c(Cl)cc(C(=O)OCC)cc3Cl)c2=O)c1 [Example 199, ethyl 4-(4-amino-5-((5-((ethylamino)methyl)pyridin-3-yl)carbamoyl)-6-oxopyrimidin-1 (6H)-yl)-3,5-dichlorobenzoate] | 2.4 nM | 118 nM | 203 nM | 3.3 nM | – | – |

Now from value to compound:

| IC50 [1] | IC50 [2] | IC50 ([3]; read-out: Enzyme GSK3β (IC50)) | IC50 ([4]; read-out: Enzyme GSK3α (IC50)) | IC50 ([3]; Enzyme GSK3β (IC50)) | IC50 ([4]; Enzyme GSK3α (IC50)) | Structure (SMILES) |
| --- | --- | --- | --- | --- | --- | --- |
| 37.3 nM | 532 nM | 355 nM | 9.3 nM | – | – | Cc1cc(CS(C)(=O)=O)cc(C)c1-n1cnc(N)c(C(=O)Nc2cncc([C@H]3CCCCN3)c2)c1=O [Example 158, (R)-4-amino-1-(2,6-dimethyl-4-((methylsulfonyl)methyl)phenyl)-6-oxo-N-(5-(piperidin-2-yl)pyridin-3-yl)-1,6-dihydropyrimidine-5-carboxamide] |
| 30.1 nM | 851 nM | 1280 nM | 44.8 nM | – | – | NCc1cccc(NC(=O)c2c(N)ncn(-c3c(Cl)cccc3Cl)c2=O)c1C(F)(F)F [Example 171, 4-amino-N-(3-(aminomethyl)-2-(trifluoromethyl)phenyl)-1-(2,6-dichlorophenyl)-6-oxo-1,6-dihydropyrimidine-5-carboxamide] |
| 1510 nM | 25000 nM | – | – | 10000 nM | 1880 nM | Nc1ncn(-c2c(O)cccc2Cl)c(=O)c1C(=O)Nc1cncc([C@@H]2CCCCN2)c1 [Example 173, (S)-4-amino-1-(2-chloro-6-hydroxyphenyl)-6-oxo-N-(5-(piperidin-2-yl)pyridin-3-yl)-1,6-dihydropyrimidine-5-carboxamide] |
| 3.3 nM | 179 nM | 257 nM | 3.7 nM | – | – | COc1cc(Cl)c(-n2cnc(N)c(C(=O)Nc3cncc(C4(N)CCC4)c3)c2=O)c(Cl)c1 [Example 179, 4-amino-N-(5-(1-aminocyclobutyl)pyridin-3-yl)-1-(2,6-dichloro-4-methoxyphenyl)-6-oxo-1,6-dihydropyrimidine-5-carboxamide] |
| 1.4 nM | 18.8 nM | 14.7 nM | 1.8 nM | – | – | COc1cc(Cl)c(-n2cnc(N)c(C(=O)Nc3cncc4c3CCC43CCCN3)c2=O)c(Cl)c1 (stereo not shown) [Example 192, 4-amino-1-(2,6-dichloro-4-methoxyphenyl)-N-(5,6-dihydrospiro[cyclopenta[c]pyridine-7,2′-pyrrolidin]-4-yl)-6-oxo-1,6-dihydropyrimidine-5-carboxamide] |
| 5.1 nM | 330 nM | 302 nM | 6.2 nM | – | – | Nc1ncn(-c2c(Cl)cc(OC3CC3)cc2Cl)c(=O)c1C(=O)Nc1cncc([C@@H]2CCCN2)c1 [Example 194, (S)-4-amino-1-(2,6-dichloro-4-cyclopropoxyphenyl)-6-oxo-N-(5-(pyrrolidin-2-yl)pyridin-3-yl)-1,6-dihydropyrimidine-5-carboxamide] |
| 7.6 nM | 451 nM | 813 nM | 14.4 nM | – | – | CCNCc1cncc(NC(=O)c2c(N)ncn(-c3c(Cl)cc(-c4cnco4)cc3Cl)c2=O)c1 [Example 200, 4-amino-1-(2,6-dichloro-4-(oxazol-5-yl)phenyl)-N-(5-((ethylamino)methyl)pyridin-3-yl)-6-oxo-1,6-dihydropyrimidine-5-carboxamide] |
